Test system: 292921-168-R-J2-PDC spheroids with HUVEC/MSC, viability
Assay: Anticancer human tumor 292921-168-R-J2-PDC patient-derived pancreatic carcinoma cell line growth inhibition [TAK]
Settings: for IC50: curve of first compound; for viability, T/C: stronger effect = lower value
Text: Combinatorial screen of targeted agents with TAK-243 and ipatasertib in multi-cell type tumor spheroids
A high-throughput screen of multi-cell type tumor spheroids was designed to identify active combinations of targeted small molecules and TAK-243 or ipatasertib. Complex spheroids include a stromal component modeled by human endothelial cells (HUVEC) and fibroblasts modeled by human mesenchymal stem cells (MSCs). The concentration ranges selected for each drug and investigational agent were based upon clinically achievable concentrations if the clinical Cmax of the agent was known.
Compounds. The drugs and investigational agents: TAK-243 (785004), ipatasertib (767898), everolimus (733504), selumetinib (741078), bortezomib (756655), trametinib (758246), ixazomib (758254), vemurafenib (761431), dabrafenib (764134), sapanisertib (764658), alpelisib (765974), and copanlisib (816437), were obtained from the National Cancer Institute (NCI) Developmental Therapeutics Program Chemical Repository. The FDA-approved anticancer drug set is available from the NCI Developmental Therapeutics Program. […] The stock solutions were prepared in dimethyl sulfoxide (DMSO, Sigma-Aldrich, St. Louis, MO, cat. D2650) at 800-fold the tested concentration and stored at -70 degrees C prior to their use. All drugs and investigational agents were tested over a range starting from a high concentration at or near the clinical Cmax and decreasing in half-log increments. If the clinical Cmax for an agent had not been determined, the highest concentration tested was 10 microM.
NCI60 Cell Culture. NCI60 cell lines were obtained from the NCI Developmental Therapeutics Program Tumor Repository. For each lot of cells, the Repository performed Applied Biosystems AmpFLSTR Identifiler testing with PCR amplification to confirm consistency with the published Identifier STR profile for each cell line. Cells were kept in continuous culture for no more than 20 passages. The optimal seeding densities for each of the cell lines at each time point assessed were determined prior to performing the concentration response studies. Briefly, the NCI60 human tumor lines were grown as monolayers in RPMI 1640 medium supplemented with 10% FBS and 2 mmol/L L-glutamine.
An additional 2 lines were from the NCI60 cell line panel including melanomas, MALME-3M and SK-MEL-2. Pooled donor human umbilical vein endothelial cells (HUVEC, Lonza, cat. CC-2519) and human mesenchymal stem cells (hMSC, Lonza, cat. PT-2501) were purchased from Lonza (Walkersville, MD).
PDMR cell lines were grown in complete medium (DC medium): Dulbecco's modified Eagle's medium (DMEM)/F12 supplemented with 5% fetal bovine serum (FBS), 2 mM L-glutamine, 100 U/mL penicillin and 100 µg/ml streptomycin, 0.4 µg/ml hydrocortisone, 10 ng/ml epidermal growth factor (EGF) recombinant human protein, 24 µg/mL adenine, and 0.1 mg/mL primocin. During culture from frozen stock vials, PDMR cells were cultured in the same medium containing 10 µM Y-27632 (see Table 3). The PDCs were cultured in complete DMEM/F12 media without 10 microM Y-27632 dihydrochloride for at least two passages prior to the screen. The pooled donor HUVEC and hMSC were cultured in endothelial cell growth medium 2 (PromoCell, Heidelberg, Germany, cat. C-22011) and mesenchymal stem cell growth medium 2 (PromoCell, cat. C-28009), respectively. For all experiments, HUVEC and hMSC were used at passages </=5.
For the pre-screen, cell seeding densities were determined from a titration spanning the range from 5,000 to 313 cells per well. The mct-spheroids including 60% malignant cells, 25% HUVEC and 15% MSC dispensed as a mixture into U-bottom Ultra-Low Attachment 384-well plates (Corning, NY)
High-throughput Drug Combination Screening.
Prior to their inoculation into 384-well plates, malignant cells, HUVEC, and hMSC were removed from T flasks using TrypLE express (Thermo Fisher Scientific, cat. 12605036) and harvested by centrifugation for 5 min at 233 x g. […]

[1] = second compound 0.3 µM, first compound 0.0316 µM
[2] = second compound 0.3 µM, first compound 0.1 µM
[3] = second compound 0.949 µM, first compound 0.0316 µM
[4] = second compound 0.949 µM, first compound 0.1 µM
[5] = second compound 3 µM, first compound 0.0316 µM
[6] = second compound 3 µM, first compound 0.1 µM
[7] = second compound 9.49 µM, first compound 0.0316 µM
[8] = second compound 9.49 µM, first compound 0.1 µM
[9] = second compound 30 µM, first compound 0.0316 µM
[10] = second compound 30 µM, first compound 0.1 µM
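Further: spheroids exposed to drugs for seven days before readout.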

CC(C)(C)c1nc(-c2cccc(NS(=O)(=O)c3c(F)cccc3F)c2F)c(-c2ccnc(N)n2)s1 + CC(C)NCC(C(=O)N1CCN(c2ncnc3c2C(C)CC3O)CC1)c1ccc(Cl)cc1
IC50 (second compound 0.3 µM): 2270 nM | IC50 (second compound 0.949 µM): 1800 nM | IC50 (second compound 3 µM): 1250 nM | IC50 (second compound 9.49 µM): 682 nM | IC50 (second compound 30 µM): < 31.6 nM | viability, T/C [1]: 94.8% | viability, T/C [2]: 94.7% | viability, T/C (second compound 0.3 µM, first compound 0.316 µM): 88.7% | viability, T/C (second compound 0.3 µM, first compound 1 µM): 74.2% | viability, T/C (second compound 0.3 µM, first compound 3.16 µM): 40.1% | viability, T/C (second compound 0.3 µM, first compound 10 µM): 20.5% | viability, T/C [3]: 85.2% | viability, T/C [4]: 92% | viability, T/C (second compound 0.949 µM, first compound 0.316 µM): 80.5% | viability, T/C (second compound 0.949 µM, first compound 1 µM): 66.9% | viability, T/C (second compound 0.949 µM, first compound 3.16 µM): 34.2% | viability, T/C (second compound 0.949 µM, first compound 10 µM): 17.9% | viability, T/C [5]: 83.4% | viability, T/C [6]: 85.9% | viability, T/C (second compound 3 µM, first compound 0.316 µM): 77.4% | viability, T/C (second compound 3 µM, first compound 1 µM): 55.2% | viability, T/C (second compound 3 µM, first compound 3.16 µM): 27.5% | viability, T/C (second compound 3 µM, first compound 10 µM): 15.8% | viability, T/C [7]: 72.5% | viability, T/C [8]: 70.8% | viability, T/C (second compound 9.49 µM, first compound 0.316 µM): 64.7% | viability, T/C (second compound 9.49 µM, first compound 1 µM): 42.5% | viability, T/C (second compound 9.49 µM, first compound 3.16 µM): 22.7% | viability, T/C (second compound 9.49 µM, first compound 10 µM): 15.2% | viability, T/C [9]: 46.5% | viability, T/C [10]: 49.8% | viability, T/C (second compound 30 µM, first compound 0.316 µM): 44.1% | viability, T/C (second compound 30 µM, first compound 1 µM): 35.6% | viability, T/C (second compound 30 µM, first compound 3.16 µM): 19.8% | viability, T/C (second compound 30 µM, first compound 10 µM): 14.1%

CC(C)CC(NC(=O)CNC(=O)c1cc(Cl)ccc1Cl)B1OC(=O)CC(CC(=O)O)(C(=O)O)O1 (stereo not given) + CC(C)NCC(C(=O)N1CCN(c2ncnc3c2C(C)CC3O)CC1)c1ccc(Cl)cc1
IC50 (second compound 0.3 µM): 27.6 nM | IC50 (second compound 0.949 µM): 23.9 nM | IC50 (second compound 3 µM): 23.7 nM | IC50 (second compound 9.49 µM): 17.9 nM | IC50 (second compound 30 µM): < 0.316 nM | viability, T/C (second compound 0.3 µM, first compound 0.000316 µM): 91.7% | viability, T/C (second compound 0.3 µM, first compound 0.001 µM): 86.2% | viability, T/C (second compound 0.3 µM, first compound 0.00316 µM): 88.8% | viability, T/C (second compound 0.3 µM, first compound 0.01 µM): 86.2% | viability, T/C [1]: 45.2% | viability, T/C [2]: 10.8% | viability, T/C (second compound 0.949 µM, first compound 0.000316 µM): 84.6% | viability, T/C (second compound 0.949 µM, first compound 0.001 µM): 85.8% | viability, T/C (second compound 0.949 µM, first compound 0.00316 µM): 85.2% | viability, T/C (second compound 0.949 µM, first compound 0.01 µM): 85.5% | viability, T/C [3]: 38.8% | viability, T/C [4]: 11% | viability, T/C (second compound 3 µM, first compound 0.000316 µM): 75.8% | viability, T/C (second compound 3 µM, first compound 0.001 µM): 80.2% | viability, T/C (second compound 3 µM, first compound 0.00316 µM): 73.3% | viability, T/C (second compound 3 µM, first compound 0.01 µM): 80.2% | viability, T/C [5]: 40.9% | viability, T/C [6]: 9.38% | viability, T/C (second compound 9.49 µM, first compound 0.000316 µM): 62% | viability, T/C (second compound 9.49 µM, first compound 0.001 µM): 60.3% | viability, T/C (second compound 9.49 µM, first compound 0.00316 µM): 60.4% | viability, T/C (second compound 9.49 µM, first compound 0.01 µM): 68.2% | viability, T/C [7]: 37.6% | viability, T/C [8]: 6.83% | viability, T/C (second compound 30 µM, first compound 0.000316 µM): 41.4% | viability, T/C (second compound 30 µM, first compound 0.001 µM): 41.2% | viability, T/C (second compound 30 µM, first compound 0.00316 µM): 42.4% | viability, T/C (second compound 30 µM, first compound 0.01 µM): 44.2% | viability, T/C [9]: 31.8% | viability, T/C [10]: 7.05%

Reference: PubChem BioAssay AID2060357 (Molecular Pharmacology Branch, DTP, NCI, 2025)
